Measurements taken from patent US20120034312A1, “4-ISOPROPYL-3-METHYLPHENOL FOR THE TREATMENT OF INFLAMMATION” (Glaxo Group Limited, priority 2009, published 2012).

Key:
[1] = tested on: Human Gingival Fibroblasts; test: PGE2 release from LPS exposed Human Gingival Fibroblasts; format: cell-based; details: for PGE2 Response (with LPS): media only without LPS = 100
Procedure: To further evaluate anti-inflammatory activity of IPMP in the oral cavity, a similar experiment was conducted on Human Gingival Fibroblasts. Cells were exposed to LPS as well as three non-irritating doses of IPMP (see example 1).
Another further experiment with IPMP and zinc chloride was conducted on Human Gingival Fibroblasts.

[2] = tested on: LPS stimulated Raw 264.7 Macrophage cells
Procedure: Anti-inflammatory activity was assessed on classical inflammation model LPS stimulated Raw 264.7 Macrophage cells. Inflammation response was quantified by measurements of the release of Prostaglandin E2 (PGE2) from the cells. Cells were exposed to E.coli lipopolysaccharide (LPS) with or without IPMP for 24 hours prior to assay. […] All values were normalized to cell viability of same sample, then to the inflammatory response of the cells without the addition of agents or LPS (100%).

SMILES | PGE2 Response (with LPS) ([1]; 2 μM IPMP) | PGE2 Response (with LPS) ([1]; 10 μM IPMP) | PGE2 Response (with LPS) ([1]; 50 μM IPMP) | Suppression of LPS induced inflammation ([1]; 2, 10, 50 μM IPMP, with LPS) | Cell death / cell proliferation at nonirritative dose [2] | Irritation of cells by IPMP by itself [2] | PGE2 Response (without LPS) ([2]; 50 μM IPMP, 24 hours, no LPS, normalized to cell viability and to cells without agents or LPS (100%)) | PGE2 Response (with LPS) ([2]; 50 μM IPMP, E.coli LPS, 24 hours, normalized to cell viability and to cells without agents or LPS (100%)) | PGE2 Response (with LPS) ([1]; 55 μM Zinc Chloride)
Cc1cc(O)ccc1C(C)C [IPMP, 4-isopropyl-3-methylphenol] | 146 ± 46.6% | 127 ± 21.6% | 103 ± 13.3% | suppresses LPS induced inflammation in a dose-dependent manner | neither cause cell death nor affect cell proliferation | did not irritate the cells | 101 ± 0.0% | 141 ± 6.4% | 
[Cl-].[Cl-].[Zn+2] [Zinc Chloride, zinc chloride, reference compound] |  |  |  |  |  |  |  |  | 171 ± 2.9%
